The values below are quoted from earlier work in patent US9707259B2, “Magnetic diffusional patch” (METUAS MEDIKAL SAGLIK HIZ-METLERI DANISMANLIK IHRACAT …, priority 2011, dated 2017).

In data set [1] the test system is activated human monocytes.
Data set [2] deals with thromboxane and leukotriene B4 synthesis.
Where [3] appears, read: experimental animals, rheumatoid arthritis.

On to `CC1=CCC(O)(C(C)C)CC1` (stereo not shown) [4-terpineol], for which, in data set [1], the inflammation mediators entry is given as “suppress”.

Regarding `CC1=CC(=O)C(C(C)C)=CC1=O` [thymoquinone], in the data set with cyclooxygenase (COX), the “effect on cyclooxygenase (COX) enzyme” value was “blocks”. For the same compound, the “effect on lipooxygenase enzyme” value in the data set with lipooxygenase enzymes is listed as “blocks”. The “synthesis of thromboxane and leukotriene B4 from eicosanoids” value in data set [2] is “inhibits”. In the data set with rheumatoid arthritis (setting [3]), the “levels of pro-inflammation cytokines TNF-alpha and interleukin (IL)-1beta” value is “reduction”; the “severity of the disease” value is on record as “decreases”. Besides, the “induced arthritis with the aid of collagen” value with rheumatoid arthritis (experimental studies) was “able to suppress”.
